Results as given in ChEMBL document CHEMBL1201862, “PubChem BioAssay data set” (2004).
Active and inactive are the calls of the source.

How the values were obtained:
[1] = target: Dual specificity protein kinase CLK1 (Homo sapiens, UniProt P49759); assay: CLK1 kinase inhibitors, off-target check, dose response, selectivity assay for Dyrk1A inhibitor project, biochemical, cherry-picked samples (AID 588811)
[2] = target: T1, Streptokinase A (Streptococcus pyogenes serotype M1, UniProt P10520); assay: S. pyogenes streptokinase expression inhibitors, potency, dose response, plasminogen activation absorbance, OD405 (AID 1914); assay type: functional, Streptococcus pyogenes M1 GAS;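 also: secreted streptokinase activity via plasminogen activation per viability signal from cell pellet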
T1 sequence (P10520 whole entry): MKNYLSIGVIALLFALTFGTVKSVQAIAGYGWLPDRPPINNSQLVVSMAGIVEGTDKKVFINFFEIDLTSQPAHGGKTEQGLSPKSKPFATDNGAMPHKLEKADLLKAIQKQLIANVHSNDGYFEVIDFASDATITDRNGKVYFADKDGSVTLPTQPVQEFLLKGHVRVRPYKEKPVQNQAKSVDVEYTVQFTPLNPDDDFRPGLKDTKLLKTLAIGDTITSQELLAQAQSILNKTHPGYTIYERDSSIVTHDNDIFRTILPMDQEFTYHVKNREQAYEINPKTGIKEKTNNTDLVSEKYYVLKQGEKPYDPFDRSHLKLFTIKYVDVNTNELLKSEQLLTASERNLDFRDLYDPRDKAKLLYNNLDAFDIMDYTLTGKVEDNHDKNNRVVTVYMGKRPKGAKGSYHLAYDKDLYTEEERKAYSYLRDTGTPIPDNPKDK

[3] = target: Serine/threonine-protein phosphatase (Candida dubliniensis (strain CD36 / CBS 7987 / NCPF 3949 / NRRLY-17841) (Yeast), UniProt B9W6M3); assay: calcineurin pathway inhibitors in yeast reporter, dose response, S. cerevisiae, CDRE-lacZ, luminescence, secondary (AID 2388); assay type: functional, cell-based;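 also: yeast reporter cells carrying a calcineurin-responsive lacZ construct stimulated with calcium chloride; luminescent beta-galactosidase reporter signal in whole cells rather than isolated phosphatase activity; potency for inhibition where a drop in reporter signal means calcineurin blockade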
Serine/threonine-protein phosphatase, sequence (B9W6M3 whole entry): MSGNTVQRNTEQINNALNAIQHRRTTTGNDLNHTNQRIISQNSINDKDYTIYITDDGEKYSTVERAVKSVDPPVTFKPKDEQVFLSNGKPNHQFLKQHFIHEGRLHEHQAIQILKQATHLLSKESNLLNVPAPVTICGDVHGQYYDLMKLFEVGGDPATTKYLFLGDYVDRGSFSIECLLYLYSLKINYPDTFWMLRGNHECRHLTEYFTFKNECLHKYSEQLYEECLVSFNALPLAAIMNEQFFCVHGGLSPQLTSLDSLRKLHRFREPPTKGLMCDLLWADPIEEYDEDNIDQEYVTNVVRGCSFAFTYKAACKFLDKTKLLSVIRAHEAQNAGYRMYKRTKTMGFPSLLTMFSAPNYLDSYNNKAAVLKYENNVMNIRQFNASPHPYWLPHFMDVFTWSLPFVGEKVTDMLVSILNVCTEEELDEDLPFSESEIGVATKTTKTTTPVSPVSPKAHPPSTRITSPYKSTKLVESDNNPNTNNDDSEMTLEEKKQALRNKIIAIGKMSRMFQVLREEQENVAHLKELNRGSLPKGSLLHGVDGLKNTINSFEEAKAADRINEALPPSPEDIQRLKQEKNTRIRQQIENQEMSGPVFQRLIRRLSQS

[4] = target: ATP-dependent molecular chaperone HSP82 (Candida albicans (strain WO-1) (Yeast), UniProt C4YTQ8); assay: loss of DOC-induced GRE-beta-galactosidase reporter signal, dose response, Hsp90 inhibitor project, S. cerevisiae, luminescence (AID 2400); assay type: functional, cell-based;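 also: beta-galactosidase luminescence from glucocorticoid response element reporter as proxy for Hsp90 function; inhibitor potency where signal loss means Hsp90 inhibition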
ATP-dependent molecular chaperone HSP82, sequence (C4YTQ8 whole entry): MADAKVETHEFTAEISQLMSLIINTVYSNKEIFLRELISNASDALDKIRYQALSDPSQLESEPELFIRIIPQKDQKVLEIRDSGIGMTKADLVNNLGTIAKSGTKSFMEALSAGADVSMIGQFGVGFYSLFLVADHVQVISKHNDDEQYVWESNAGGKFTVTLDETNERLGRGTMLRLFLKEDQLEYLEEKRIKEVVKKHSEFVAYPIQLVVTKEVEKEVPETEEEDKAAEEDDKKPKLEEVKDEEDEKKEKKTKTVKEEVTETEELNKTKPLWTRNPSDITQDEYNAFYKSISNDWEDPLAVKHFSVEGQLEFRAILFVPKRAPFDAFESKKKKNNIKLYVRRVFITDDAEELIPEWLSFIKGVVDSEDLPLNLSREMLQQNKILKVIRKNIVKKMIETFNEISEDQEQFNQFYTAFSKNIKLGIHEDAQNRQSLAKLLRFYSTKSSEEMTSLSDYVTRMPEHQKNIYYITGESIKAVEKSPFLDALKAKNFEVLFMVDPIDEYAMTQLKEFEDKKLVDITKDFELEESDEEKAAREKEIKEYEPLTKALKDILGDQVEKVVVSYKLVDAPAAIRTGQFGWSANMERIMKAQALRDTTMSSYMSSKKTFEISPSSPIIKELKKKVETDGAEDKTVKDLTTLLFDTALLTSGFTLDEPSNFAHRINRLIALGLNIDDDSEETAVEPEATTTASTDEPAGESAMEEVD

[5] = target: Melanocortin receptor 4 (Homo sapiens, UniProt P32245); assay: MC4R antagonist potency on cAMP, dose response, cell-based, TR-FRET, biased antagonists (AID 602298); assay type: functional;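 also: antagonist potency against agonist-stimulated cAMP production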
Melanocortin receptor 4, sequence (P32245 whole entry): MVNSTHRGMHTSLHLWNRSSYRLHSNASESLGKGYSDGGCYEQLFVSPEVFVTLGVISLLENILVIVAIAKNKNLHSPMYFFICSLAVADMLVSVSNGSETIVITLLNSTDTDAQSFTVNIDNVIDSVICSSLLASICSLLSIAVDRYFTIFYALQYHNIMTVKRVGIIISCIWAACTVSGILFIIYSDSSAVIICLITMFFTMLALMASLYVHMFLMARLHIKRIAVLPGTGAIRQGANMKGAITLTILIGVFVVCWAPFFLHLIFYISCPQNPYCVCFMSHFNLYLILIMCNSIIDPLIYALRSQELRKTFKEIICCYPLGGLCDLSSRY

[6] = nonselective inhibitors of cellular cAMP signaling, dose response, counter-screen for MC4R biased antagonist project, cell-based, TR-FRET cAMP detection (AID 602305); assay type: functional;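 also: U2OS cells stimulated with forskolin near its EC80 as the cAMP inducer; potency is for inhibition of forskolin-stimulated cAMP signaling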
[7] = target: Nuclear receptor subfamily 5 group A member 2 (Homo sapiens, UniProt O00482); assay type: functional, cell-based;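 also: HEK293T cells transfected with LRH-1 and a StAR promoter luciferase reporter; potency for inhibitors that lower LRH-1 driven reporter light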
Nuclear receptor subfamily 5 group A member 2, sequence (O00482 whole entry): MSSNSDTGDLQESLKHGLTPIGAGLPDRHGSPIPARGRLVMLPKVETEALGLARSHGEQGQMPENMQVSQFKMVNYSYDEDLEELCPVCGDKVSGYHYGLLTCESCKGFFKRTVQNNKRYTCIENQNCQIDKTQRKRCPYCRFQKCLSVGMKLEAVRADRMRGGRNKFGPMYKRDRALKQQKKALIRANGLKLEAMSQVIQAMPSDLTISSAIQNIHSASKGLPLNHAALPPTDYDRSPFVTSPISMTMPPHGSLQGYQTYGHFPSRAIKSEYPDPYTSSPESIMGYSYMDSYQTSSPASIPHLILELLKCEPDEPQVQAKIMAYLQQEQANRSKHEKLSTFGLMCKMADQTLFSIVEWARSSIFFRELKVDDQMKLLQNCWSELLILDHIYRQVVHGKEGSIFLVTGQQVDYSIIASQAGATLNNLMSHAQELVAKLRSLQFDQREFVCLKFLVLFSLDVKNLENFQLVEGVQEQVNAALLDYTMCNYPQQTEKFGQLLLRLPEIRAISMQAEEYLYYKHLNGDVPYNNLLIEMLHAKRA

[8] = target: Steroidogenic factor 1 (Homo sapiens, UniProt Q13285); assay: Counterscreen for inverse agonists of the liver receptor homolog-1 (LRH-1; NR5A2): Luminescence-based cell-based high throughput dose response assay to identify inverse agonists of the Steroidogenic Factor 1 Nuclear Receptor (SF1; NR5A1).; assay type: functional
Steroidogenic factor 1, sequence (Q13285 whole entry): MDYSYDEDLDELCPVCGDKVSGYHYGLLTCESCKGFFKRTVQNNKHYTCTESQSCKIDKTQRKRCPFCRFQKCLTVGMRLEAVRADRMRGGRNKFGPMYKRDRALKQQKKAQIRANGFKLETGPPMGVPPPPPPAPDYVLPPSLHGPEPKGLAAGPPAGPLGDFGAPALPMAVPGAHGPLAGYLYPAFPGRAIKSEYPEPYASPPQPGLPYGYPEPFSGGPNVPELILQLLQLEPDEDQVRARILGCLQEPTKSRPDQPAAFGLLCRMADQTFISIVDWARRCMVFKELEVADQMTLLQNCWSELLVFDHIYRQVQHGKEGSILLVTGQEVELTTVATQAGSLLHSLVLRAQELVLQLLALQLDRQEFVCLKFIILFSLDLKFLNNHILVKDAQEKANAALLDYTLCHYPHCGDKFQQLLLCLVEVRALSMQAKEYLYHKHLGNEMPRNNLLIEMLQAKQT

[9] = StAR promoter reporter inhibition counter-screen, dose response, counter-screen for LRH-1 inverse agonist project, cell-based, luminescence, luciferase reporter (AID 651969); assay type: functional
[10] = test system: H9c2; assay: cells; assay type: functional, cell-based; details: Rattus norvegicus, H9c2, Myocardium;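 also: confirmatory concentration-response retest of ultra-high-throughput screening hits for modulation of myocardial damage; cell death induced by hydrogen peroxide oxidative stress; compound pretreatment for 60 min then peroxide exposure for 2 h; potency is for protecting the cells against peroxide damage rather than for killing them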
[11] = AlphaScreen signal interference compounds, dose response, artefact control for ARNT-TACC3 interaction inhibitor project, biochemical, luminescence, cherry-pick (AID 651705); assay type: functional;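 also: AlphaScreen bead proximity signal that flags compounds interfering with the detection technology; potency reflects signal decrease which marks the compound as an assay artifact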
[12] = target: T2, Mitochondrial peptide methionine sulfoxide reductase (Bos taurus, UniProt P54149); assay: Absorbance-based biochemical high throughput dose response assay for activators of Methionine sulfoxide reductase A (MsrA).; assay type: functional
T2 sequence (P54149 whole entry): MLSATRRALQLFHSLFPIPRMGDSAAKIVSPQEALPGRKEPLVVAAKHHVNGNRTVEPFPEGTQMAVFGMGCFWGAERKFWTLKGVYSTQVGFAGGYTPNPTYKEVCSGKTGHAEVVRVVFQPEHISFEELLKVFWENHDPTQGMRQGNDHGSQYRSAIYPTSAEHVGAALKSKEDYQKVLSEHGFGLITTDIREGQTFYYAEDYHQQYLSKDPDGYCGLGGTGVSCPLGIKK

[13] = target: T3, Sentrin-specific protease 8 (Homo sapiens, UniProt Q96LD8); assay type: functional
T3 sequence (Q96LD8 whole entry): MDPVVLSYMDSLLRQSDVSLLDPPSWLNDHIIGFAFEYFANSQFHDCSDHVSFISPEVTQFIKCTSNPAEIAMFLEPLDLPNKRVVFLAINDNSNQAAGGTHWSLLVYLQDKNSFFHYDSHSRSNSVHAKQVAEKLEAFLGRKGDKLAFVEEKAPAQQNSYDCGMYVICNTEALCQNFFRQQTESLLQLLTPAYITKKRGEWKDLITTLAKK

[14] = target: T2, Mitochondrial peptide methionine sulfoxide reductase; assay type: functional
[15] = target: T3, Sentrin-specific protease 8; assay type: functional; remark: listed apart in the source
[16] = target: Histone-lysine N-methyltransferase NSD2 (Homo sapiens, UniProt O96028); assay type: biochemical
Histone-lysine N-methyltransferase NSD2, sequence (O96028 whole entry): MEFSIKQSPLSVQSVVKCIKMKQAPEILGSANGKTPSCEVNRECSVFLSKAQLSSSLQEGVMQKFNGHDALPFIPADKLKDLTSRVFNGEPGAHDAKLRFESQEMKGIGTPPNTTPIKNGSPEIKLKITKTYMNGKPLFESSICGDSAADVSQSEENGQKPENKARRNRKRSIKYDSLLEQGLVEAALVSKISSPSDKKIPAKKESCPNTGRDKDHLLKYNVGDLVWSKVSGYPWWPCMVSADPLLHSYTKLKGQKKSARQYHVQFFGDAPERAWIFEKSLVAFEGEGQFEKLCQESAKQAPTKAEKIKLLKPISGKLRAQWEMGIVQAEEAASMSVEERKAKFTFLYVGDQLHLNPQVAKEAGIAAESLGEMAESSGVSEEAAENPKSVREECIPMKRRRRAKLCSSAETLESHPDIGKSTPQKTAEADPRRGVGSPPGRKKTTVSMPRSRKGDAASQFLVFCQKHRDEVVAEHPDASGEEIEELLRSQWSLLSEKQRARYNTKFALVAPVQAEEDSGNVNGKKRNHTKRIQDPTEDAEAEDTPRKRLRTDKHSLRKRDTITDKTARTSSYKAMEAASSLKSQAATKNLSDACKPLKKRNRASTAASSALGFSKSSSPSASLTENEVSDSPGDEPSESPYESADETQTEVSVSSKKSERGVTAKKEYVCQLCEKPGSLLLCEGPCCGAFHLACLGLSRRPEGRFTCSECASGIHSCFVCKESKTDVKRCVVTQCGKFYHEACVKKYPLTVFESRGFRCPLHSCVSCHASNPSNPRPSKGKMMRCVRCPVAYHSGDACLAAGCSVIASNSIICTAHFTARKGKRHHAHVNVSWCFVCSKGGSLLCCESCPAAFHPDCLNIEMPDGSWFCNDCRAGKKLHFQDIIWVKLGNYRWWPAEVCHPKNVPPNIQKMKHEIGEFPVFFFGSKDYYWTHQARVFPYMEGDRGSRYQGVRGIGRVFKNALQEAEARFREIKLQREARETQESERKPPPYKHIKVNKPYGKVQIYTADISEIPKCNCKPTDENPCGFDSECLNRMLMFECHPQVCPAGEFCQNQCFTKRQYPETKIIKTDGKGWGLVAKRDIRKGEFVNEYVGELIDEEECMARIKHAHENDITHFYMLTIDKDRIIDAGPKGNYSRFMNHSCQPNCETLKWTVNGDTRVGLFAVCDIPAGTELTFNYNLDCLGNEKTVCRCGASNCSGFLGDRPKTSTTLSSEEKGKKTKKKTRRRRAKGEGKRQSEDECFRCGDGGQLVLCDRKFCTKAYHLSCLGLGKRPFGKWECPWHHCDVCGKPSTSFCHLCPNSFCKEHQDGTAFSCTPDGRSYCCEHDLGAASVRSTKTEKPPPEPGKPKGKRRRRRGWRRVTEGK

[17] = NIH-3T3 fibroblast cytotoxicity, dose response, cytotoxicity control, cell-based, fluorescence, Alamar Blue, secondary assay (AID 2327); assay type: functional;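 also: NIH-3T3 mouse fibroblasts cultured with fluconazole at 8 µg/mL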
[18] = Luminescence Cell-Based Dose Response to Identify Activators of 5'UTR Stem-Loop Driven Prion Protein mRNA Translation in H4-C Neuroglioblastoma Cells. [Related pubchem assays: 1829 (Project Summary), 1814 (Primary HTS)]; assay type: functional
[19] = Luminescence Cell-Based Dose Confirmation HTS to Identify Activators of 5'UTR Stem-Loop Driven Alpha-Synuclein mRNA Translation in H4 Neuroglioblastoma Cells. [Related pubchem assays: 1829 (Project Summary), 1814 (Primary HTS)]; assay type: functional
[20] = Luminescence Cell-Based Dose Response HTS to Identify Activators of Luciferase Translation or Activity in H4 […] Cells. [Related pubchem assays: 1829 (Project Summary), 1814 (Primary HTS)]; assay type: functional
[21] = test system: H4; assay: Luminescence Cell-Based Dose Response HTS to Identify Activators of 5'UTR Stem-Loop Driven Prion Protein mRNA Translation in H4 Neuroglioblastoma Cells. [Related pubchem assays: 1829 (Project Summary), 1814 (Primary HTS)]; assay type: functional; details: Homo sapiens
[22] = C. albicans growth with fluconazole, confirmation, fluorescence, retest (AID 2467); assay type: functional, cell-based
[23] = Luminescence Cell-Based Dose Response to Identify Activators of Luciferase Translation or Activity in H4-C Neuroglioblastoma Cells. [Related pubchem assays: 1829 (Project Summary), 1814 (Primary HTS)]; assay type: functional
[24] = Luminescence Cell-Based Dose Confirmation to Identify Activators of 5'UTR Stem-Loop Driven Alpha-Synuclein mRNA Translation in H4 Neuroglioblastoma Cells. [Related pubchem assays: 1829 (Project Summary), 1814 (Primary HTS)]; assay type: functional

Dual specificity protein kinase CLK1, sequence (P49759 whole entry): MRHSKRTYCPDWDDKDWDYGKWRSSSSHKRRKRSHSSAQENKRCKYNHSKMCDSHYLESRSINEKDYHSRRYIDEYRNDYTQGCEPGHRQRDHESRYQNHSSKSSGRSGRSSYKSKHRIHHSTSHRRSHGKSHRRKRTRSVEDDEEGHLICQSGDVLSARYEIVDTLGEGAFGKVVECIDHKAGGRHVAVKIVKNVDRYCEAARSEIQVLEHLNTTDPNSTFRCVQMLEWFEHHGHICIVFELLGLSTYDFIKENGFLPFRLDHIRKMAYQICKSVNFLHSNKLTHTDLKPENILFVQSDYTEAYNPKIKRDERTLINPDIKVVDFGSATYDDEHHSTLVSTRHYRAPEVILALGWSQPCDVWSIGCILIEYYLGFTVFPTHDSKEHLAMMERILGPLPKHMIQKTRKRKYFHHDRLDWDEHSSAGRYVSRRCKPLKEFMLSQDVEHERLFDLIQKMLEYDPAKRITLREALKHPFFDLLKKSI

c1cncc(-c2nc(NCc3ccco3)c3ccccc3n2)c1
AC50 [1]: 17.9 µM (active)

O=C(c1cc(-c2ccccc2)n[nH]1)N1CCc2c([nH]c3ccccc23)C1c1ccccn1 (stereo unspecified)
EC50 [2]: 26.3 µM (active) | EC50 [3]: > 180 µM (inactive) | EC50 [4]: 31.2 µM (active)

COC(=O)CSc1nnc(-c2ccc(S(=O)(=O)N3CCCCC3)cc2)o1
IC50 [5]: > 64.6 µM (inactive) | IC50 [6]: > 64.6 µM (inactive)

Cc1no[n+]([O-])c1COc1ccc(/C=C2\NC(=S)NC2=O)cc1
IC50 [7]: 0.578 µM (active) | IC50 [8]: 1.34 µM (active) | IC50 [9]: 35.9 µM (inactive)

CCCn1nc(C(=O)Nc2nc(-c3ccccn3)cs2)c2ccccc2c1=O
IC50 [10]: > 79 µM (inactive) | AC50 [11]: 81.7 µM (active)

O=[N+]([O-])c1ccc(-[n+]2nc(-c3ccccc3)nn2-c2ccccc2)cc1
EC50 [12]: > 104 µM (inactive) | IC50 [13]: 23.7 µM (active) | IC50 [14]: 35.9 µM (inactive) | IC50 [15]: 5.48 µM (active) | AC50 [16]: 0.654 µM (active)

Clc1ccc(CONc2ncnc3nonc23)c(Cl)c1
EC50 [17]: > 160 µM (inactive) | EC50 [18]: 1.14 µM (active) | EC50 [19]: 22.4 µM (active) | EC50 [20]: < 0.1 µM (inconclusive) | EC50 [21]: 52.6 µM (active) | EC50 [22]: 1.26 µM (active) | EC50 [23]: 0.516 µM (active) | EC50 [3]: > 180 µM (inactive) | EC50 [24]: > 12 µM (not active) | EC50 [4]: 19.4 µM (active)
